The subject of assay [1] is TC-71 and RD-ES cell lines. As to the kind of experiment: Dose-dependent cytotoxicity assay in ES cell lines. To be noted: dose-response at 1, 3, 10 and 30 μmol/L in TC-71 and RD-ES. Type of assay: cell-based, human. How it is done:
The plate was installed into the RTCA system, and the electrical impedance (represented as cell index) was measured every 10 min.
The primary screen was based on a direct binding assay using surface plasmon resonance (SPR) technology with purified extracellular domain of CD99 (CD99-ECD) protein that was immobilized on a neutravidin-coated sensor chip. […] A negative control protein was used in order to eliminate non-specific binders. […] Dose-response studies were performed with 2 compounds at 1, 3, 10 and 30 μmol/L concentration in ES cell lines.

Assay [2] concerns TC-71, 6647 and RDES ES cells. As to the kind of experiment: Soft agar colony formation assay, ES cells. Type of assay: cell-based, human. To be noted: dose-dependent. How it is done:
Anchorage-independent growth was determined in 0.33% agarose (Sea-Plaque Agarose, Lonza) with a 0.5% agarose underlay. […] Colonies were counted after 7-12 days.

Assay [3] deals with T1, recombinant human full-length CD99 (Homo sapiens, UniProt P14209).
T1 construct: Purified recombinant human full-length CD99 produced in HEK293 cells was purchased from Origene; purchased Origene #TP304056; host or cells: HEK293
T1 sequence (P14209 23-185): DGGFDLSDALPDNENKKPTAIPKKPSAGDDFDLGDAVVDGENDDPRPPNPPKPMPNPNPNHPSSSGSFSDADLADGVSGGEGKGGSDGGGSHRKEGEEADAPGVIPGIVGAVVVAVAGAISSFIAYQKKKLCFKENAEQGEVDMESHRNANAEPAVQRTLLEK
As to the kind of experiment: SPR binding kinetics, recombinant human full-length CD99 (Biacore T200). The note with it: full-length CD99 produced in HEK293 cells, immobilized by amine coupling. How it is done: The initial binding screening of the NCI/DTP chemical libraries was performed on a Biacore T200 instrument at room temperature using a neutravidin-coated CM5 chip (GE Healthcare Bio-Sciences) coupled with biotinylated CD99-ECD on one flow cell at levels of ˜3,000 response units (RU). A negative control protein, Ly6k was immobilized on another flow cell of the same chip (˜11,000 RU), and the first flow cell was left empty for reference subtraction due to nonspecific binding. Analytes were diluted in HBS—P buffer [10 mmol/L HEPES, pH 7.4, 150 mmol/L NaCl, % 0.05 (v/v) surfactant P20], and were injected individually over all flow cells. The running buffer contained appropriate concentrations of DMSO in HBS—P to match the DMSO level of the samples. Kinetic studies for antibody- or compound-CD99 interactions were performed in a Biacore T200 instrument. Purified recombinant human full-length CD99 produced in HEK293 cells was purchased from Origene (Rockville, Md.) (#TP304056). The recombinant human full-length CD99 was immobilized on a CM5 sensor chip by the amine-coupling method in sodium acetate buffer, pH 4.0 (˜10,000 RU). The first flow cell was left empty for background signal subtraction. Kinetic characterization of the interactions was done by injecting increasing concentrations of analytes as indicated over CD99-captured and control surface. KD (equilibrium dissociation constant) values were obtained using BiaEvaluation software (version 1.0) (Biacore) (GE Healthcare). All kinetic experiments were conducted in HBS—P buffer, which contained 1% (v/v) DMSO in case of compounds.

In the next assay the test system is TC-CD99-shRNA #1 cells. Briefly: Soft agar colony formation assay, CD99 knockdown cells. Type of assay: cell-based, human.
The subject of a further assay is TC-71 ES cells. As to the kind of experiment: Cell viability IC50, TC-71. Type of assay: cell-based, human. To be noted: TC-71 cells, WST-1, 48 h (FIG. 10B).
A further assay concerns A4573 ES cells. As to the kind of experiment: Cell viability IC50 (WST-1), A4573. Type of assay: cell-based, human. The note with it: WST-1, 48 h (FIG. 10B).
For assay [4], the target named is T2, CD99-ECD (extracellular domain of human CD99) (Homo sapiens, UniProt P14209).
T2 construct: the extracellular domain (Asp23-Asp122) of human CD99; made in house; host or cells: Escherichia coli BL21 (DE3)
T2 sequence (P14209 23-122): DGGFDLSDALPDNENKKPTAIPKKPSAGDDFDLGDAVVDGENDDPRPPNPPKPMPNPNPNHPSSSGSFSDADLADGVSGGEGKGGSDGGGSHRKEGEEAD
As to the kind of experiment: SPR binding, CD99-ECD purified from bacteria. The source says: The Champion™ pET104 BioEase™ Gateway® Expression System (Invitrogen (Carlsbad, Calif.)) was used to produce CD99-ECD fused with a N-terminal biotin tag, as directed by the manufacturer's instructions. Briefly, the DNA sequence encoding the extracellular domain (Asp23-Asp122) of human CD99 was amplified by PCR using pcDNA3.1 expression vector (Life Technologies (Carlsbad, Calif.)) carrying the full-length human CD99 cDNA transcript variant 1 as template. The primers were designed to include an additional C-terminal 6×His tag in the protein. The PCR product was gel purified with a QIAquick gel extraction kit (Qiagen (Hilden, Germany)) and subcloned into the pDONR 221 entry vector. The entry clone was then subjected to a recombination reaction with pET104.1-DEST destination vector, an expression vector with a N-terminal BioEase tag. The presence of an insert was confirmed by DNA sequencing.
CD99-ECD was expressed in Escherichia coli BL21 (DE3) cells. A saturated overnight culture of cells was diluted by 20-fold into fresh LB medium containing 100 μg/mL ampicillin. To induce the expression of CD99-ECD, cells were grown to OD600nm 0.5-0.7 at 37° C. and induced by the addition of isopropyl-β-D-thiogalactopyranoside to a final concentration of 1 mmol/L. The cultures were grown for an additional 3 h at 37° C. Cells were harvested by centrifugation at 8,000×g for 15 min, resuspended in 50 mmol/L sodium phosphate buffer, pH 7.4, containing 500 mmol/L NaCl, 10 mmol/L imidazole and 1 Complete EDTA-free protease inhibitor tablet/50 mL (Roche Diagnostics), and lysed by sonication. […] Protein fractions were finally eluted with a linear gradient of imidazole (10 to 1000 mmol/L) in the same buffer. The purity of the protein was assessed by SDS-PAGE followed by Coomassie staining. The eluted fractions were stored at −80° C. for further use. […]

These results are taken from patent US11202792B2, “CD99 inhibitors and their uses” (GEORGETOWN UNIVERSITY, priority 2016, dated 2021).

In assay [1], `C=C(Cl)C(Cl)(CBr)CCC(Br)C(C)(C)Cl` (stereo not shown) [NSC662825] had an IC50 of 9 µM.

Regarding clofarabine-5′-triphosphate, the “colony formation (anchorage-independent growth)” value in assay [2] is “inhibited”. In addition, the Kd amounted to 3.7 µM in assay [3] and 7.6 µM in assay [4]. Besides, the “colony formation in CD99 knockdown cells” value with TC-CD99-shRNA #1 cells was “diminished”. Further, the 50% inhibitory concentration (IC50) was found to be 170 nM in the assay with TC-71 ES cells and 460 nM in the assay with A4573 ES cells.
